Measurements from US7071195B2, “Amine and amide derivatives as ligands for the neuropeptide Y Y5 receptor useful in the treatment of obesity and other disorders” (Ortho-McNeil Pharmaceutical, Inc., priority 1999, dated 2006).
Where a name gives a salt, the structure may show the parent alone.

Biological target: T1, human neuropeptide Y5 receptor (Homo sapiens, UniProt Q15761)
T1 construct: expressed in transfected cells; host or cells: HEK-293 (stably transfected, G-418 selected); membranes
T1 sequence (Q15761 1-445): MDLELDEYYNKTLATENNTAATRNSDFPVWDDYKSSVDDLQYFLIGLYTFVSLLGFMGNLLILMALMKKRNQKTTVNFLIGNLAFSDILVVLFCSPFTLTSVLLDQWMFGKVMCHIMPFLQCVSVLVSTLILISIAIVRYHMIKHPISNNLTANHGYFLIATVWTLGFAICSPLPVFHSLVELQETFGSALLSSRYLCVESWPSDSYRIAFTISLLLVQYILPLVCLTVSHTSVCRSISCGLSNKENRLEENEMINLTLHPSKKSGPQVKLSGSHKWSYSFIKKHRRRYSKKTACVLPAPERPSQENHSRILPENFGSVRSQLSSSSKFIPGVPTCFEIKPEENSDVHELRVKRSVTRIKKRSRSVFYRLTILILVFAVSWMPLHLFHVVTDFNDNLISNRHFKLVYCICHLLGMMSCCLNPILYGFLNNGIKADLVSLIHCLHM
Experiment: NPY5 HTS centrifugation assay: competition with 125I-PYY for binding to membranes of NPY5-transfected HEK293 cells
Conditions: 80 pM 125I-PYY, 1 hr room temperature; for % Inh @ 300 nM (% Inhibition of 125I-PYY Binding) / inhibition at 0.3 µM: 300 nM compound; for % Inh @ 3 uM (% Inhibition of 125I-PYY Binding) / inhibition at 3 µM: 3 uM compound; for inhibition at 0.3 µM: read-out: % Inh @ 300 nM (% Inhibition of 125I-PYY Binding); for inhibition at 3 µM: read-out: % Inh @ 3 uM (% Inhibition of 125I-PYY Binding)
Experimental: The compounds described in this invention were evaluated for binding to the human neuropeptide Y5 receptor.
Stably transfected cells served as the source for the membranes for the NPY5 receptor binding assay.
NPY5-transfected HEK293 cells were grown to confluence in 150 cm^2 culture dishes. […] Cells were then incubated in phosphate-buffered saline without Calcium and without Magnesium, supplemented with 2 mM EDTA. Cells were incubated for 10 minutes at room temperature and the cells were collected by repetitive pipeting. Cells were formed into pellets and then frozen at −80 until needed. Frozen pellets were homogenized with a polytron at full speed for 12 seconds in a homogenization buffer (20 mM Tris HCl, 5 mM EDTA, pH 7.4). Homogenates were centrifuged for 5 minutes at 4 C at 200 g. Supernatants were transferred to corex tubes and centrifuged for 25 minutes at 28,000 g. Pellets were re-suspended in Binding (20 mM HEPES, 10 mM NaCl, 0.22 mM KH2PO4, 1.3 mM CaCl2, 0.8 mM MgSO4, pH 7.4). Membranes were kept on ice until use.
Compounds to be tested were prepared as 10× stocks in binding buffer and added first to assay tubes (RIA vials, Sarstedt). […] To each tube is added 100 μL of membranes and the mixture is agitated by pipeting 2 times. Samples are incubated for 1 hr at room temperature. Aluminum cast plates (Sarstedt) containing the vials are then centrifuged 10 minutes at 3200 rpm in a Sorvall RT6000. Supernatant is then aspirated. To each vial 400 μL PBS is added and this is then aspirated again. Vials are then put in carrier polypropylene 12×75 tube and counted in gamma counter (Packard). Non-specific binding is determined in the presence of 300 nM NPY. […] These operations are known to those skilled in the art.

Compound	% Inh @ 300 nM (% Inhibition of 125I-PYY Binding) [%]	% Inh @ 3 uM (% Inhibition of 125I-PYY Binding) [%]	inhibition at 0.3 µM [%]	inhibition at 3 µM [%]
CC(=O)NC(CCCCNS(=O)(=O)c1ccccc1)C(=O)NC1CCc2ccccc2C1Cc1cccnc1 (mixture of isomers) [Compound 37]	89	102		
O=C(CN1CCC(NS(=O)(=O)c2ccccc2)C1)N[C@H]1CCc2cc(F)ccc2[C@H]1Cc1cccnc1 (relative stereo) [Compound 17, 3-[(Phenylsulfonyl)amino]-N-[cis-1,2,3,4-tetrahydro-6-fluoro-1-(3-pyridinylmethyl)-2-naphthalenyl]-1-pyrrolidineacetamide bis-trifluoroacetate]			98	102
NC(=O)NC(CCCCNS(=O)(=O)c1ccccc1)C(=O)NC1CCc2ccccc2C1Cc1cccnc1 (mixture of isomers) [Compound 41]	54	94		
CC(C)(C)OC(=O)NC1CCN(CC(=O)NC2CCc3cc(F)ccc3C2Cc2cccnc2)C1 (stereo not shown) [Compound 55]	96	106		
CCNC(CCCCNS(=O)(=O)c1ccccc1)CNC1CCc2ccccc2C1Cc1cccnc1 (mixture of isomers) [Compound 68]	109	108		
NC(CCCCNS(=O)(=O)c1ccccc1)C(=O)NC1CCc2ccccc2C1Cc1cccnc1 (single isomer, unassigned) [Compound 34a]	87	97		
NC(CCCCNS(=O)(=O)c1ccccc1)CNC1CCc2ccccc2C1Cc1cccnc1 (single isomer, unassigned) [Compound 66]	98	102		
O=C(CN1CCC(NC(=O)Nc2ccccc2)CC1)NC1CCc2cc(F)ccc2C1Cc1cccnc1 (stereo not shown) [Compound 45]	68	95		
O=C(CN1CCC(NS(=O)(=O)c2ccccc2)C1)NC1CCc2cc(F)ccc2C1Cc1cccnc1 (mixture of isomers) [Compound 59]	90	93		
COc1ccc2c(c1)CCC(NC(=O)[C@H](CCCCNS(=O)(=O)c1ccccc1F)NC(C)=O)C2Cc1cccnc1 (stereo partly drawn) [Compound 10, (2S)-2-(Acetylamino)-6-[(2-fluorophenylsulfonyl)amino]-N-[cis-1,2,3,4-tetrahydro-6-methoxy-1-(3-pyridinylmethyl)-2-naphthenyl]hexanamide bis-hydrochloride]			60	96
CC(C)(C)NC(=O)NC1CCN(CC(=O)NC2CCc3cc(F)ccc3C2Cc2cccnc2)CC1 (stereo not shown) [Compound 53]	84	92		
O=C(CN1CCC(n2c(=O)[nH]c3ccccc32)CC1)NC1CCc2cc(O)ccc2C1 (stereo not shown) [Compound 83]	72	92		
NC(CCCCNS(=O)(=O)c1ccccc1)CNC1CCc2ccccc2C1Cc1cccnc1 (mixture of isomers) [Compound 65]	79	98		
O=C(NC(CCCCNS(=O)(=O)c1ccccc1)C(=O)NC1CCc2ccccc2C1Cc1cccnc1)c1ccccc1 (mixture of isomers) [Compound 39]	70	95		
CC(=O)NC(CCCCNS(=O)(=O)c1ccccc1)C(=O)NC1CCc2ccccc2C1Cc1cccnc1 (single isomer, unassigned) [Compound 38a]	80	104		
O=S(=O)(NC[C@H]1CC[C@H](CNCC(Cc2cccnc2)c2ccc(F)cc2)CC1)c1ccccc1F (stereo partly shown) [Compound 27]			105	110

Compound	% Inh @ 300 nM (% Inhibition of 125I-PYY Binding) [%]	% Inh @ 3 uM (% Inhibition of 125I-PYY Binding) [%]	inhibition at 0.3 µM [%]	inhibition at 3 µM [%]
COc1ccc2c(c1)CCC(NC(=O)CN1CCC(n3c(=O)[nH]c4ccccc43)CC1)C2Cc1cnc[nH]1 (stereo not shown) [Compound 73]	32	63		
O=C(CN1CCC(NC(=O)c2ccccc2)CC1)NC1CCc2cc(F)ccc2C1Cc1cccnc1 (stereo not shown) [Compound 44]	93	98		
O=C(Nc1ccccc1)NC(CCCCNS(=O)(=O)c1ccccc1)C(=O)NC1CCc2ccccc2C1Cc1cccnc1 (mixture of isomers) [Compound 72]	41	73		
CC(C)(C)OC(=O)NC1CCN(CC(=O)NC2CCc3cc(F)ccc3C2Cc2cccnc2)C1 (mixture of isomers) [Compound 57]	87	93		
O=C(CN1CCC(NC(=O)c2ccccc2)C1)NC1CCc2cc(F)ccc2C1Cc1cccnc1 (mixture of isomers) [Compound 60]	86	109		
COc1ccc2c(c1)CCC(NC(=O)CN1CCC(n3c(=O)[nH]c4ccccc43)CC1)C2 (stereo not shown) [Compound 82]	63	85		
CN(C)C(CCCCNS(=O)(=O)c1ccccc1)C(=O)NC1CCc2ccccc2C1Cc1cccnc1 (single isomer, unassigned) [Compound 43b]	62	86		
COc1ccccc1N1CCN(CC(=O)NC2CCc3ccccc3C2Cc2cccnc2)CC1 (stereo not shown) [Compound 93]	81	97		
O=C(CN1CCC(n2c(=O)[nH]c3ccccc32)CC1)N[C@H]1CCc2cc(O)ccc2[C@H]1Cc1cccnc1 (relative stereo) [Compound 23, 4-(2,3-Dihydro-2-oxo-1H-benzimidazol-1-yl)-N-[cis-1,2,3,4-tetrahydro-6-hydroxy-1-(3-pyridinylmethyl)-2-naphthalenyl]-1-piperidineacetamide bis-hydrochloride]			96	100
COc1ccc2c(c1)CC[C@@H](NC(=O)CN1CCC(n3c(=O)[nH]c4ccccc43)CC1)[C@@H]2Cc1cccnc1 (relative stereo) [Compound 20, 4-(2,3-Dihydro-2-oxo-1H-benzimidazol-1-yl)-N-[trans-1,2,3,4-tetrahydro-6-methoxy-1-(3-pyridinylmethyl)-2-naphthalenyl]-1-piperidineacetamide bis-hydrochloride]			88	96
CC(C)(C)OC(=O)NC1CCN(CC(=O)NC2CCc3cc(F)ccc3C2Cc2cccnc2)CC1 (stereo not shown) [Compound 54]	99	100		
NC(CCCCNS(=O)(=O)c1ccccc1)C(=O)NC1CCc2ccccc2C1Cc1cccnc1 (mixture of isomers) [Compound 33]	52	96		
O=C(NCC(Cc1cccnc1)c1ccc(F)cc1)[C@H]1CC[C@H](CNS(=O)(=O)c2ccccc2F)CC1 (relative stereo) [Compound 26, trans-N-[2-(4-fluorophenyl)-3-(3-pyridinyl)propyl]-4-[((2-fluorophenylsulfonyl)amino)methyl]-1-cyclohexanamide hydrochloride]			108	110
O=C(CN1CCC(n2c(=O)[nH]c3ccccc32)CC1)NC1CCc2ccccc2C1Cc1cccnc1 (stereo not shown) [Compound 31]	91	100		
NC(CCCCNS(=O)(=O)c1ccccc1)C(=O)NC1CCc2ccccc2C1Cc1cccnc1 (single isomer, unassigned) [Compound 34b]	61	99		
COc1ccc2c(c1)CCC(NC(=O)CN1CCC(n3c(=O)[nH]c4ccccc43)CC1)C2Cc1ccsc1 (stereo not shown) [Compound 61]	66	87		
